Measured values reported in patent publication US9867376B2, “Herbicidal compositions comprising N-tetrazol-5-yl)- or N-(triazol-5-yl)arylcarboxamides” (priority 2012, dated 2018).

How the values were obtained:
Assay type in all cases: in vivo
Abutilon theophrasti = assay: Field trial, post-emergence, visual scoring; details: Table 5-17, field, alone
Description: (§1) The tests were conducted outdoors (plot trials, 10 m^2 per plot, 2 repetitions, spray application with 200-300 liters of water per hectare). Crops and broad-leaved weeds/weed grasses were sown under customary field conditions. In addition, a natural weed flora also appeared. Application was by the post-emergence method. The application rates of the herbicidally active compounds applied on their own or in combinations are likewise shown in the tables below. Evaluations were by visual scoring (using a 0-100% scale) after application by comparison of treated and untreated test variants.
(§2) The abbreviations denote: • a.i.=active ingredient • E^C=expected value according to Colby (E^C=A+B−A×B100) • Δ=difference (%) of the measured value to the expected value (%) (measured value minus expected value)
(§3) Evaluation: • measured value E is greater than E^C:→synergism (+Δ) • measured value E equals E^C:→additive effect • measured value E is smaller than E^C:→antagonism (−Δ)

Cassia obtusifolia = assay: Field trial, post-emergence, visual scoring; details: alone
Description: as §1, §2, §3

Portulaca oleracea = assay: Field trial, post-emergence, visual scoring; details: alone
Description: as §1, §2, §3

Setaria viridis = assay: Field trial, post-emergence, visual scoring; details: alone
Description: as §1, §2, §3

Sida spinosa = assay: Field trial, post-emergence, visual scoring; details: alone, 10 g of a.i./ha
Description: as §1, §2, §3

Bidens pilosa = assay: Greenhouse trial, post-emergence, visual herbicidal effect; details: alone
Description: (§4) The weed seeds were sown in pots (diameter 8 cm) with sandy loam soil and germinated under optimum conditions. The herbides were applied by the post-emergence method onto the pots with the cultures, at a spray volume of 300 I/ha. The herbicides were applied on their own and in combination. The trial was conducted in a greenhouse under optimum growth conditions. The herbicidal effects were assessed visually by comparison of untreated and treated plants. The percentages mean: 0%=no effects, 100%=the plants die off completely). The percentages are used to calculate interactions between individual treatments and combination treatment according to S. R. Colby, Weeds 15, pages 20 to 22 (1967).
as §2, §3

Brachiaria platyphylla = assay: as above; details: alone
Description: as §4, §2, §3

Amaranthus retroflexus = assay: Field trial, post-emergence, visual scoring; details: Table 5-48, field, alone
Description: as §1, §2, §3

Ambrosia artemisiifolia = assay: Greenhouse trial, post-emergence, visual herbicidal effect; details: Table 5-52, greenhouse, alone, 4 g of a.i./ha
Description: as §4, §2, §3

Lolium multiflorum = assay: Field trial, post-emergence, visual scoring; details: alone, 25 g of a.i./ha
Description: as §1, §2, §3

Polygunum convolvulus = assay: Field trial, post-emergence, visual scoring; details: Table 5-53, field, alone
Description: as §1, §2, §3

Xanthium strumarium = assay: Greenhouse trial, post-emergence, visual herbicidal effect; details: Table 5-56, greenhouse, alone, 1 g of a.i./ha
Description: as §4, §2, §3

Alopecurus myosuroides = assay: Field trial, post-emergence, visual scoring; details: Table 5-60, field, alone
Description: as §1, §2, §3

Centaurea cyanis [1] = assay: Field trial, post-emergence, visual scoring; details: Table 5-59, field, alone
Description: as §1, §2, §3

Euphorbia heterophylla = assay: Field trial, post-emergence, visual scoring
Description: as §1, §2, §3

Galium aparine = assay: Field trial, post-emergence, visual scoring; details: alone
Description: as §1, §2, §3

Papaver rhoeas = assay: Greenhouse trial, post-emergence, visual herbicidal effect; details: alone
Description: as §4, §2, §3

Polygonum convolvulus = assay: as above; details: alone
Description: as §4, §2, §3

Veronica hederifolia [2] = assay: as above; details: Table 5-89, greenhouse, alone
Description: as §4, §2, §3

Veronica hederifolia [3] = assay: Field trial, post-emergence, visual scoring; details: alone, 210 g of a.i./ha
Description: as §1, §2, §3

[4] = test system: broad-leaved weeds/weed grasses; assay: Field trial, post-emergence, visual scoring (species not listed above); details: dosage 210 g of a.i./ha
Description: as §1, §2, §3

Avena fatua = assay: Greenhouse trial, post-emergence, visual herbicidal effect; details: alone
Description: as §4, §2, §3

Centaurea cyanis [5] = assay: as above; details: alone
Description: as §4, §2, §3

Phalaris minor = assay: as above; details: Table 5-03, greenhouse, alone, 25 g of a.i./ha
Description: as §4, §2, §3

Viola tricolor = assay: as above; details: alone
Description: as §4, §2, §3

## CCCn1nnnc1NC(=O)c1ccc(C(F)(F)F)c(S(C)(=O)=O)c1C [A1-9]
Abutilon theophrasti; 20 g of a.i./ha
  Activity [%] against Abutilon theophrasti: 78%
Cassia obtusifolia; Table 5-12, field, 20 g of a.i./ha
  Activity [%] against Cassia obtusifolia: 0%
Cassia obtusifolia; Table 5-24, field, 20 g of a.i./ha
  Activity [%] against Cassia obtusifolia: 0%
Cassia obtusifolia; Table 5-25, field, 25 g of a.i./ha
  Activity [%] against Cassia obtusifolia: 65%
Portulaca oleracea; Table 5-13, field, 20 g of a.i./ha
  Activity [%] against Portulaca oleracea: 43%
Portulaca oleracea; Table 5-14, field, 20 g of a.i./ha
  Activity [%] against Portulaca oleracea: 43%
Portulaca oleracea; Table 5-15, field, 20 g of a.i./ha
  Activity [%] against Portulaca oleracea: 43%
Portulaca oleracea; Table 5-16, field, 20 g of a.i./ha
  Activity [%] against Portulaca oleracea: 43%
Portulaca oleracea; Table 5-18, field, 20 g of a.i./ha
  Activity [%] against Portulaca oleracea: 43%
Portulaca oleracea; Table 5-19, field, 20 g of a.i./ha
  Activity [%] against Portulaca oleracea: 43%
Portulaca oleracea; Table 5-20, field, 20 g of a.i./ha
  Activity [%] against Portulaca oleracea: 43%
Portulaca oleracea; Table 5-22, field, 10 g of a.i./ha
  Activity [%] against Portulaca oleracea: 38%
Setaria viridis; Table 5-23, field, 10 g of a.i./ha
  Activity [%] against Setaria viridis: 15%
Setaria viridis; Table 5-26, field, 25 g of a.i./ha
  Activity [%] against Setaria viridis: 7%
Sida spinosa; Table 5-10, field
  Activity [%] against Sida spinosa: 60%
Sida spinosa; Table 5-11, field
  Activity [%] against Sida spinosa: 60%
Sida spinosa; Table 5-21, field
  Activity [%] against Sida spinosa: 60%

## CCc1c(C(=O)Nc2nnnn2C)ccc(Cl)c1SC [A1-36]
Bidens pilosa; Table 5-46, greenhouse, 2 g of a.i./ha
  Activity [%] against Bidens pilosa: 45%
Bidens pilosa; Table 5-47, greenhouse, 4 g of a.i./ha
  Activity [%] against Bidens pilosa: 30%
Brachiaria platyphylla; Table 5-45, greenhouse, 2 g of a.i./ha
  Activity [%] against Brachiaria platyphylla: 25%
Amaranthus retroflexus; 50 g of a.i./ha
  Activity [%] against Amaranthus retroflexus: 0%

## Cc1ccc(C(=O)Nc2nnnn2C)c(Cl)c1S(C)(=O)=O [A1-49]
Ambrosia artemisiifolia
  Activity [%] against Ambrosia artemisiifolia: 80%
Lolium multiflorum; Table 5-54, field
  Activity [%] against Lolium multiflorum: 40%
Polygunum convolvulus; 25 g of a.i./ha
  Activity [%] against Polygunum convolvulus: 35%

## COCc1c(S(C)(=O)=O)ccc(C(=O)Nc2nnnn2C)c1Cl [A1-60]
Brachiaria platyphylla; Table 5-55, greenhouse, 1 g of a.i./ha
  Activity [%] against Brachiaria platyphylla: 0%
Brachiaria platyphylla; Table 5-57, greenhouse, 2 g of a.i./ha
  Activity [%] against Brachiaria platyphylla: 40%
Xanthium strumarium
  Activity [%] against Xanthium strumarium: 25%
Alopecurus myosuroides; 25 g of a.i./ha
  Activity [%] against Alopecurus myosuroides: 15%
Centaurea cyanis [1]; 25 g of a.i./ha
  Activity [%] against Centaurea cyanis: 45%
Euphorbia heterophylla; Table 5-63, field, alone, 25 g of a.i./ha
  Activity [%] against Euphorbia heterophylla: 30%
Galium aparine; Table 5-61, field, 25 g of a.i./ha
  Activity [%] against Galium aparine: 30%
Galium aparine; Table 5-62, field, 25 g of a.i./ha
  Activity [%] against Galium aparine: 73%
Lolium multiflorum; Table 5-58, field
  Activity [%] against Lolium multiflorum: 15%

## Cn1nnnc1NC(=O)c1ccc(S(C)(=O)=O)c(OCC2CC2)c1Cl [A1-74]
Papaver rhoeas; Table 5-86, greenhouse, 3 g of a.i./ha
  Activity [%] against Papaver rhoeas: 30%
Papaver rhoeas; Table 5-87, greenhouse, 3 g of a.i./ha
  Activity [%] against Papaver rhoeas: 40%
Polygonum convolvulus; Table 5-88, greenhouse, 3 g of a.i./ha
  Activity [%] against Polygonum convolvulus: 0%
Veronica hederifolia [2]; 3 g of a.i./ha
  Activity [%] against Veronica hederifolia: 40%

## CCNc1nc(Cl)nc(NC(C)C)n1 [atrazine]
Amaranthus retroflexus; 560 g of a.i./ha
  Activity [%] against Amaranthus retroflexus: 60%
Euphorbia heterophylla; Field, dosage 1000 g of a.i./ha
  Activity [%] against Euphorbia heterophylla: 55%
Euphorbia heterophylla; Table 5-51, field, alone, 1000 g of a.i./ha
  Activity [%] against Euphorbia heterophylla: 49%
Euphorbia heterophylla; Table 5-63, field, alone, 1000 g of a.i./ha
  Activity [%] against Euphorbia heterophylla: 49%
Euphorbia heterophylla; Table 5-85, field, alone, 1000 g of a.i./ha
  Activity [%] against Euphorbia heterophylla: 49%
Portulaca oleracea; Table 5-13, field, 250 g of a.i./ha
  Activity [%] against Portulaca oleracea: 25%

## N#Cc1cc(Br)c(O)c(Br)c1 [bromoxynil]
Cassia obtusifolia; Table 5-25, field, 210 g of a.i./ha
  Activity [%] against Cassia obtusifolia: 10%
Galium aparine; Table 5-04, field, 210 g of a.i./ha
  Activity [%] against Galium aparine: 13%
Galium aparine; Table 5-62, field, 210 g of a.i./ha
  Activity [%] against Galium aparine: 13%
Galium aparine; Table 5-92, field, 210 g of a.i./ha
  Activity [%] against Galium aparine: 25%
Polygunum convolvulus; 210 g of a.i./ha
  Activity [%] against Polygunum convolvulus: 30%
Veronica hederifolia [3]; Table 5-66, field
  Activity [%] against Veronica hederifolia: 5%
Veronica hederifolia [3]; Table 5-74, field
  Activity [%] against Veronica hederifolia: 5%
Veronica hederifolia [3]; Table 5-76, field
  Activity [%] against Veronica hederifolia: 0%
Veronica hederifolia [3]; Table 5-79, field
  Activity [%] against Veronica hederifolia: 5%
[4]; Table 5-114
  Activity [%] against Stellaria media: 10%
[4]; Table 5-116
  Activity [%] against Stellaria media: 5%

## COC[C@H](C)N(C(=O)CCl)c1c(C)csc1C [dimethenamide-P]
Abutilon theophrasti; 500 g of a.i./ha
  Activity [%] against Abutilon theophrasti: 25%

## CCOC(=O)[C@@H](C)Oc1ccc(Oc2nc3ccc(Cl)cc3o2)cc1 [fenoxaprop-P-ethyl]
Avena fatua; Table 5-01, greenhouse, 25 g of a.i./ha
  Activity [%] against Avena fatua: 0%
Avena fatua; Table 5-05, greenhouse, 12.5 g of a.i./ha
  Activity [%] against Avena fatua: 0%
Avena fatua; Table 5-07, greenhouse, 12.5 g of a.i./ha
  Activity [%] against Avena fatua: 0%
Avena fatua; Table 5-49, greenhouse, 25 g of a.i./ha
  Activity [%] against Avena fatua: 0%
Centaurea cyanis [5]; Table 5-50, greenhouse, 25 g of a.i./ha
  Activity [%] against Centaurea cyanis: 0%
Papaver rhoeas; Table 5-06, greenhouse, 12.5 g of a.i./ha
  Activity [%] against Papaver rhoeas: 20%
Phalaris minor
  Activity [%] against Phalaris minor: 15%
Polygonum convolvulus; Table 5-08, greenhouse, 25 g of a.i./ha
  Activity [%] against Polygonum convolvulus: 0%
Viola tricolor; Table 5-02, greenhouse, 25 g of a.i./ha
  Activity [%] against Viola tricolor: 0%
Viola tricolor; Table 5-09, greenhouse, 12.5 g of a.i./ha
  Activity [%] against Viola tricolor: 15%
Alopecurus myosuroides; 83 g of a.i./ha
  Activity [%] against Alopecurus myosuroides: 30%

## CC(C)N(C(=O)COc1nnc(C(F)(F)F)s1)c1ccc(F)cc1 [flufenacet]
Centaurea cyanis [1]; 240 g of a.i./ha
  Activity [%] against Centaurea cyanis: 0%

## CCc1cc(C)cc(CC)c1-c1c(OC(=O)C(C)(C)C)n2n(c1=O)CCOCC2 [pinoxaden]
Centaurea cyanis [5]; Table 5-38, greenhouse, 5 g of a.i./ha
  Activity [%] against Centaurea cyanis: 0%
Centaurea cyanis [5]; Table 5-40, greenhouse, 5 g of a.i./ha
  Activity [%] against Centaurea cyanis: 15%
Papaver rhoeas; Table 5-39, greenhouse, 5 g of a.i./ha
  Activity [%] against Papaver rhoeas: 0%
Papaver rhoeas; Table 5-41, greenhouse, 10 g of a.i./ha
  Activity [%] against Papaver rhoeas: 10%
Papaver rhoeas; Table 5-86, greenhouse, 10 g of a.i./ha
  Activity [%] against Papaver rhoeas: 0%
Papaver rhoeas; Table 5-87, greenhouse, 10 g of a.i./ha
  Activity [%] against Papaver rhoeas: 50%
Polygonum convolvulus; Table 5-88, greenhouse, 10 g of a.i./ha
  Activity [%] against Polygonum convolvulus: 0%
Veronica hederifolia [2]; 10 g of a.i./ha
  Activity [%] against Veronica hederifolia: 20%
Viola tricolor; Table 5-42, greenhouse, 10 g of a.i./ha
  Activity [%] against Viola tricolor: 0%
